According to patent publication US12685315B2, “Herbicidal combination” (UPL do Brasil Industria e Comercio de Insumos Agropecuarios …, priority 2019, dated 2026):

Assays:
yellow nutsedge = assay: Field trial, post emergence, efficacy on yellow nutsedge (Blacksburg, VA); assay type: in vivo, Cyperus esculentus; conditions: 2-way mixes 0.5X, 3-way mix 0.33X; for Yellow nut sedge at 29 DAT (Percentage weed cover): dosage: singles 1X; for Yellow nut sedge at 29 DAT (Percentage Control): post emergence, dosage: singles 1 X
Experimental: A field trial was conducted to evaluate effectiveness of the combinations of three active ingredients according to the invention when used post emergence, at different rates, compared to industry standards—stand alone and 2 way mixture molecules for efficacy of yellow nutsedge. The active ingredient combination used in the trial was bentazon+halosulfuron+sulfentrazone. The trial was conducted in Blacksburg, VA and was initiated on June 6 under given protocol. The plots were in fallow area primarily covered with yellow nutsedge and tall fescue and were sprayed at 4 week intervals. (2 applications total). The application dosages of the herbicides, when used in isolation and when used in the combinations were as follows: […]

[1] = system: Cenchrus echinatus (CCHEC); assay: Field trial of triple mixes of amicarbazone, pre and post-emergence weed control; assay type: in vivo
Experimental: (§1) Field trials were done to evaluate the efficacy and synergism of the triple mixes of amicarbazone with other herbicides for the control of weeds in pre and post-emergence application.
(§2) The composition of the present invention was applied. This test was performed for species of weeds: Grasses namely BRADC=Brachiaria decumbens, CCHEC=Cenchrus echinatus, ELEIN=Eleusine indica, TRCIN=Digitaria insularis and Broadleaves namely IAQGR=Ipomoea grandifolia, EPHHL=Euphorbia heterophylla, COMBE=Commelina benghalensis. Data were collected at various period after application of the composition to the soil and calculated.

[2] = system: Brachiaria decumbens (BRADC); assay: as above; assay type: in vivo; conditions: Table 1, dose g ai/ha: Amicarbazone 75, Isoxaflutole 15, Atrazine 250, mix 75 + 15 + 250
Experimental: as §1, §2

[3] = system: Ipomoea grandifolia (IAQGR); assay: Field trial of triple mixes of amicarbazone, pre-emergence weed control; assay type: in vivo; conditions: dose g ai/ha: Amicarbazone 75, Isoxaflutole 15, Atrazine 250, mix 75 + 15 + 250
Experimental: as §1, §2

Digitaria insularis = assay: Field trial of triple mixes of amicarbazone, post-emergence weed control; assay type: in vivo; conditions: dose g ai/ha: Amicarbazone 75, S-metolachlor 300, Atrazine 250, mix 75 + 300 + 250
Experimental: as §1, §2

Eleusine indica = assay: Field trial of triple mixes of amicarbazone, pre and post-emergence weed control; assay type: in vivo; conditions: Table 8, dose g ai/ha: Amicarbazone 250, Sulfentrazone 150, Diuron 250, mix 250 + 150 + 250
Experimental: as §1, §2

Euphorbia heterophylla = assay: Field trial of triple mixes of amicarbazone, pre-emergence weed control; assay type: in vivo; conditions: dose g ai/ha: Amicarbazone 250, Sulfentrazone 150, Diuron 250, mix 250 + 150 + 250
Experimental: as §1, §2

**Q.** Which “Yellow nut sedge at 29 DAT (Percentage weed cover)” value (yellow nutsedge; 05/07, untreated 59) does the source give for `COc1cc(OC)nc(NC(=O)NS(=O)(=O)c2c(C(=O)O)c(Cl)nn2C)n1` [Halosulfuron] here?
**A.** 8%

**Q.** And the “Yellow nut sedge at 29 DAT (Percentage Control)” value (yellow nutsedge; 05/07)?
**A.** 81%

**Q.** What about the “Yellow nut sedge at 29 DAT (Percentage weed cover)” value (yellow nutsedge; 13/06, untreated 50) of the same molecule?
**A.** 50%

**Q.** What about the “Yellow nut sedge at 29 DAT (Percentage Control)” value (yellow nutsedge; 13/06) of the same molecule?
**A.** 36%

**Q.** What about the “Yellow nut sedge at 29 DAT (Percentage weed cover)” value (yellow nutsedge; 20/6, untreated 49) of the same molecule?
**A.** 16%

**Q.** And the “Yellow nut sedge at 29 DAT (Percentage Control)” value (yellow nutsedge; 20/6)?
**A.** 60%

**Q.** Which “% Control” value ([1]; Table 2, Post-Emergence, 7 DAA, dose g ai/ha: Amicarbazone 75, Isoxaflutole 15, Atrazine 250, mix 75 + 15 + 250) does the source give for `CS(=O)(=O)c1cc(C(F)(F)F)ccc1C(=O)c1cnoc1C1CC1` [Isoxaflutole] here?
**A.** 68.8%

**Q.** What about the “% Control” value ([1]; Table 2, Post-Emergence, 28 DAA, dose g ai/ha: Amicarbazone 75, Isoxaflutole 15, Atrazine 250, mix 75 + 15 + 250) of the same molecule?
**A.** 91.3%

**Q.** And the “% Control” value ([1]; Table 2, Post-Emergence, 35 DAA, dose g ai/ha: Amicarbazone 75, Isoxaflutole 15, Atrazine 250, mix 75 + 15 + 250)?
**A.** 93.3%

**Q.** What about the “% Control” value ([2]; Post-Emergence, 7 DAA) of the same molecule?
**A.** 66.3%

**Q.** And the “% Control” value ([2]; Post-Emergence, 21 DAA)?
**A.** 65.0%

**Q.** And the “% Control” value ([2]; Post-Emergence, 28 DAA)?
**A.** 68.8%

**Q.** And the “% Control” value ([2]; Pre-Emergence, 7 DAA)?
**A.** 86.3%

**Q.** And the “% Control” value ([2]; Pre-Emergence, 21 DAA)?
**A.** 53.8%

**Q.** What about the “% Control” value ([2]; Pre-Emergence, 28 DAA) of the same molecule?
**A.** 50.0%

**Q.** What about the “% Control” value ([3]; Table 3, 14 DAA) of the same molecule?
**A.** 15.0%

**Q.** And the “% Control” value ([3]; Table 3, 21 DAA)?
**A.** 0.0%

**Q.** What about the “% Control” value ([3]; Table 3, 28 DAA) of the same molecule?
**A.** 0.0%

**Q.** What does the source list for `CCc1cccc(C)c1N(C(=O)CCl)[C@@H](C)COC` [S-metolachlor]?
**A.** % Control (Digitaria insularis; Table 9, 21 DAA): 0.0%; % Control (Digitaria insularis; Table 9, 28 DAA): 0.0%; % Control (Digitaria insularis; Table 9, 35 DAA): 0.0%

**Q.** With `Cc1nn(-c2cc(NS(C)(=O)=O)c(Cl)cc2Cl)c(=O)n1C(F)F` [Sulfentrazone] as the molecule, how does the “% Control” value (Eleusine indica; Post-Emergence, 14 DAA) read?
**A.** 70.0%

**Q.** What about the “% Control” value (Eleusine indica; Post-Emergence, 21 DAA) of the same molecule?
**A.** 63.8%

**Q.** What about the “% Control” value (Eleusine indica; Post-Emergence, 28 DAA) of the same molecule?
**A.** 55.0%

**Q.** What about the “% Control” value (Eleusine indica; Pre-Emergence, 14 DAA) of the same molecule?
**A.** 93.3%

**Q.** What about the “% Control” value (Eleusine indica; Pre-Emergence, 21 DAA) of the same molecule?
**A.** 96.5%

**Q.** What about the “% Control” value (Eleusine indica; Pre-Emergence, 28 DAA) of the same molecule?
**A.** 92.0%

**Q.** And the “% Control” value ([1]; Table 6, Post-Emergence, 21 DAA, dose g ai/ha: Amicarbazone 250, Sulfentrazone 150, Diuron 250, mix 250 + 150 + 250)?
**A.** 86.3%

**Q.** And the “% Control” value ([1]; Table 6, Post-Emergence, 28 DAA, dose g ai/ha: Amicarbazone 250, Sulfentrazone 150, Diuron 250, mix 250 + 150 + 250)?
**A.** 83.8%

**Q.** And the “% Control” value ([1]; Table 6, Post-Emergence, 35 DAA, dose g ai/ha: Amicarbazone 250, Sulfentrazone 150, Diuron 250, mix 250 + 150 + 250)?
**A.** 82.5%

**Q.** What about the “% Control” value ([1]; Table 6, Pre-Emergence, 21 DAA, dose g ai/ha: Amicarbazone 250, Sulfentrazone 150, Diuron 250, mix 250 + 150 + 250) of the same molecule?
**A.** 17.5%

**Q.** What about the “% Control” value ([1]; Table 6, Pre-Emergence, 28 DAA, dose g ai/ha: Amicarbazone 250, Sulfentrazone 150, Diuron 250, mix 250 + 150 + 250) of the same molecule?
**A.** 13.8%

**Q.** What about the “% Control” value ([1]; Table 6, Pre-Emergence, 35 DAA, dose g ai/ha: Amicarbazone 250, Sulfentrazone 150, Diuron 250, mix 250 + 150 + 250) of the same molecule?
**A.** 9.5%

**Q.** And the “% Control” value (Euphorbia heterophylla; Table 7, 7 DAA)?
**A.** 0.0%

**Q.** What about the “% Control” value (Euphorbia heterophylla; Table 7, 14 DAA) of the same molecule?
**A.** 10.0%

**Q.** And the “% Control” value (Euphorbia heterophylla; Table 7, 21 DAA)?
**A.** 17.5%

**Q.** And the “Yellow nut sedge at 29 DAT (Percentage weed cover)” value (yellow nutsedge; 05/07, untreated 59)?
**A.** 9%

**Q.** And the “Yellow nut sedge at 29 DAT (Percentage Control)” value (yellow nutsedge; 05/07)?
**A.** 75%

**Q.** And the “Yellow nut sedge at 29 DAT (Percentage weed cover)” value (yellow nutsedge; 13/06, untreated 50)?
**A.** 44%

**Q.** And the “Yellow nut sedge at 29 DAT (Percentage Control)” value (yellow nutsedge; 13/06)?
**A.** 58%

**Q.** What about the “Yellow nut sedge at 29 DAT (Percentage weed cover)” value (yellow nutsedge; 20/6, untreated 49) of the same molecule?
**A.** 11%

**Q.** And the “Yellow nut sedge at 29 DAT (Percentage Control)” value (yellow nutsedge; 20/6)?
**A.** 73%
